What was measured:
[1] = Antiproliferative activity against VEGF-stimulated HUVEC cells assessed as reduction in cell viability at 0.5 nM preincubated for 1 hr followed by addition of VEGF measured after 72 hrs by MTT assay; format: functional; details: Homo sapiens
[2] = Antiproliferative activity against VEGF-stimulated HUVEC cells assessed as reduction in cell viability at 2 nM preincubated for 1 hr followed by addition of VEGF measured after 72 hrs by MTT assay; format: functional; details: Homo sapiens

SMILES	inhibition at 0.0005 µM [1] [%]	inhibition at 0.002 µM [2] [%]
N#CCNC(=O)c1ccccc1Nc1ccc2c(/C=C/c3ccccn3)n[nH]c2c1	18	40
O=C(NCCCN1CCCC1=O)c1ccccc1Nc1ccc2c(/C=C/c3ccccn3)n[nH]c2c1	25	35
CCCCCCNC(=O)c1ccccc1Nc1ccc2c(/C=C/c3ccccn3)n[nH]c2c1	21	90
CCN(CC)CCNC(=O)c1ccccc1Nc1ccc2c(/C=C/c3ccccn3)n[nH]c2c1	39	15
O=C(NCC1CCC=CO1)c1ccccc1Nc1ccc2c(/C=C/c3ccccn3)n[nH]c2c1 (stereo unspecified)	37	16
O=C(NCCc1c[nH]cn1)c1ccccc1Nc1ccc2c(/C=C/c3ccccn3)n[nH]c2c1	23	-32
CC(O)CNC(=O)c1ccccc1Nc1ccc2c(/C=C/c3ccccn3)n[nH]c2c1 (stereo unspecified)	38	2
O=C(Nc1ccon1)c1ccccc1Nc1ccc2c(/C=C/c3ccccn3)n[nH]c2c1	6	16
CCNC(=O)c1ccccc1Nc1ccc2c(/C=C/c3ccccn3)n[nH]c2c1	16	17
N#CCCNNC(=O)c1ccccc1Nc1ccc2c(/C=C/c3ccccn3)n[nH]c2c1	44	5
CS(=O)(=O)NNC(=O)c1ccccc1Nc1ccc2c(/C=C/c3ccccn3)n[nH]c2c1	9	1
O=C(NCCN1CCOCC1)c1ccccc1Nc1ccc2c(/C=C/c3ccccn3)n[nH]c2c1	28	22
CC(CO)NC(=O)c1ccccc1Nc1ccc2c(/C=C/c3ccccn3)n[nH]c2c1 (stereo unspecified)	19	28
CN(C)CCCNC(=O)c1ccccc1Nc1ccc2c(/C=C/c3ccccn3)n[nH]c2c1	6	1
O=C(NNc1ccccc1)c1ccccc1Nc1ccc2c(/C=C/c3ccccn3)n[nH]c2c1	18	29
O=C(NNC(=O)c1ccccc1Nc1ccc2c(/C=C/c3ccccn3)n[nH]c2c1)c1ccco1	26	71
CCN1CCC[C@@H]1CNC(=O)c1ccccc1Nc1ccc2c(/C=C/c3ccccn3)n[nH]c2c1	8	37
O=C(NNCCO)c1ccccc1Nc1ccc2c(/C=C/c3ccccn3)n[nH]c2c1	33	18
CC(C)OCCCNC(=O)c1ccccc1Nc1ccc2c(/C=C/c3ccccn3)n[nH]c2c1	34	99

SMILES	inhibition at 0.0005 µM [1] [%]	inhibition at 0.002 µM [2] [%]
O=C(NC1CC1)c1ccccc1Nc1ccc2c(/C=C/c3ccccn3)n[nH]c2c1	59	97
C[C@@H](O)CNC(=O)c1ccccc1Sc1ccc2c(/C=C/c3ccccn3)n[nH]c2c1	22	
CC(C)OCCNC(=O)c1ccccc1Nc1ccc2c(/C=C/c3ccccn3)n[nH]c2c1	51	
O=C(Nc1cccc2c1CCCC2)c1ccccc1Sc1ccc2c(/C=C/c3ccccn3)n[nH]c2c1	-17	
COc1ccc(C(N)=O)cc1NC(=O)c1ccccc1Sc1ccc2c(/C=C/c3ccccn3)n[nH]c2c1	5	
Cc1cccc(NC(=O)c2ccccc2Sc2ccc3c(/C=C/c4ccccn4)n[nH]c3c2)c1	3	
O=C(Nc1cncc(Cl)n1)c1ccccc1Sc1ccc2c(/C=C/c3ccccn3)n[nH]c2c1	17	
C[C@@H](CNC(=O)c1ccccc1Sc1ccc2c(/C=C/c3ccccn3)n[nH]c2c1)c1ccccc1	3	
Cn1c(NC(=O)c2ccccc2Sc2ccc3c(/C=C/c4ccccn4)n[nH]c3c2)nc2ccccc21	-21	
CCCc1ccc(NC(=O)c2ccccc2Sc2ccc3c(/C=C/c4ccccn4)n[nH]c3c2)cc1	22	
CC(C)(Cc1ccc(F)cc1)NC(=O)c1ccccc1Sc1ccc2c(/C=C/c3ccccn3)n[nH]c2c1	-7	
Cc1nc(O)cc(NC(=O)c2ccccc2Sc2ccc3c(/C=C/c4ccccn4)n[nH]c3c2)n1	3	
O=C(Nc1ccc(O)c2ccccc12)c1ccccc1Sc1ccc2c(/C=C/c3ccccn3)n[nH]c2c1	4	
CCCCc1ccc(NC(=O)c2ccccc2Sc2ccc3c(/C=C/c4ccccn4)n[nH]c3c2)cc1	-22	
O=C(Nc1cc(F)c(F)c(F)c1)c1ccccc1Sc1ccc2c(/C=C/c3ccccn3)n[nH]c2c1	0	
COc1ccc(NC(=O)c2ccccc2Sc2ccc3c(/C=C/c4ccccn4)n[nH]c3c2)cc1	4	
O=C(N[C@H]1CCc2ccccc21)c1ccccc1Sc1ccc2c(/C=C/c3ccccn3)n[nH]c2c1	8 to 15	
COc1ccc(CNC(=O)c2ccccc2Nc2ccc3c(/C=C/c4ccccn4)n[nH]c3c2)cc1	63	
Cc1ccc(NC(=O)c2ccccc2Sc2ccc3c(/C=C/c4ccccn4)n[nH]c3c2)cc1Cl	-11	

SMILES	inhibition at 0.0005 µM [1] [%]	inhibition at 0.002 µM [2] [%]
CC(C)(C)CNC(=O)c1ccccc1Nc1ccc2c(/C=C/c3ccccn3)n[nH]c2c1	5 to 19	
COc1ccccc1CNC(=O)c1ccccc1Nc1ccc2c(/C=C/c3ccccn3)n[nH]c2c1	36	
CC(C)c1cccc(NC(=O)c2ccccc2Sc2ccc3c(/C=C/c4ccccn4)n[nH]c3c2)c1	8	
Cc1ccc(C(N)=O)cc1NC(=O)c1ccccc1Sc1ccc2c(/C=C/c3ccccn3)n[nH]c2c1	15	
O=C(N[C@H](CO)c1ccccc1)c1ccccc1Sc1ccc2c(/C=C/c3ccccn3)n[nH]c2c1	18	
CCCOCCNC(=O)c1ccccc1Nc1ccc2c(/C=C/c3ccccn3)n[nH]c2c1	28	
C#CCNC(=O)c1ccccc1Nc1ccc2c(/C=C/c3ccccn3)n[nH]c2c1	95	
C[C@H](NC(=O)c1ccccc1Sc1ccc2c(/C=C/c3ccccn3)n[nH]c2c1)c1ccccc1	-3	
Cc1ccc(NC(=O)c2ccccc2Sc2ccc3c(/C=C/c4ccccn4)n[nH]c3c2)cc1	-15	
O=C(Nc1cc(F)cc(F)c1)c1ccccc1Sc1ccc2c(/C=C/c3ccccn3)n[nH]c2c1	-36	
O=C(N[C@@H](CO)Cc1ccccc1)c1ccccc1Sc1ccc2c(/C=C/c3ccccn3)n[nH]c2c1	-3	
C[C@H](NC(=O)c1ccccc1Sc1ccc2c(/C=C/c3ccccn3)n[nH]c2c1)c1cccc2ccccc12	-20	
CCCCC(NC(=O)c1ccccc1Sc1ccc2c(/C=C/c3ccccn3)n[nH]c2c1)C(=O)NO (stereo unspecified)	0	
O=C(NNC(=O)c1ccccc1Nc1ccc2c(/C=C/c3ccccn3)n[nH]c2c1)c1ccccn1	69	
O=C(N[C@H](CO)[C@@H](O)c1ccccc1)c1ccccc1Sc1ccc2c(/C=C/c3ccccn3)n[nH]c2c1	10	
O=C(Nc1cc(Cl)ccc1O)c1ccccc1Sc1ccc2c(/C=C/c3ccccn3)n[nH]c2c1	-22	
O=C(NC[C@H]1CCCO1)c1ccccc1Sc1ccc2c(/C=C/c3ccccn3)n[nH]c2c1	-11	
CCONC(=O)c1ccccc1Nc1ccc2c(/C=C/c3ccccn3)n[nH]c2c1	72	
